Consider 20 compounds from EP3800188A1, “SUBSTITUTED PYRAZOLOPYRIMIDINES AS IRAK4 INHIBITORS” (Bayer AG, priority 2019, dated 2021).

In this assay the target is T1, human IRAK4 (Homo sapiens, UniProt Q9NWZ3).
T1 construct: GST (N); made in house; host or cells: baculovirus-infected Hi5 (BTI-TN-5B1-4) insect cells
T1 sequence (Q9NWZ3 1-460): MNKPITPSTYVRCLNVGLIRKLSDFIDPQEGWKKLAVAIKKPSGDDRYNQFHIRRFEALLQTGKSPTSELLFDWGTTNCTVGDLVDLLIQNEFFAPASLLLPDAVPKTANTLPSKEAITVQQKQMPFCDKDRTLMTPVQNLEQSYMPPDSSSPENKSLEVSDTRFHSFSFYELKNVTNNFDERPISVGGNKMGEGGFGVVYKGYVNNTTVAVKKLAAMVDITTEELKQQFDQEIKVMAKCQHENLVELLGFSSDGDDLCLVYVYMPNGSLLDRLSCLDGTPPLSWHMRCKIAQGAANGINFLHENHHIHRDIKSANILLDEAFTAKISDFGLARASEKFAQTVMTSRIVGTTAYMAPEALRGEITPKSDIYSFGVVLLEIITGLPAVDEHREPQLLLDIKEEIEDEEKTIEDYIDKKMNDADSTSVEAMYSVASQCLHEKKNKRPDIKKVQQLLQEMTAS
The assay can be described thus: Human IRAK4 kinase activity inhibition assay (IRAK4 TR-FRET assay). Type of assay: biochemical. The settings on record: 1 mM ATP, GST-human IRAK4, average or median values. The method, then:
The IRAK4-inhibitory activity of the inventive substances was measured in the IRAK4 TR-FRET assay (TR-FRET = Time Resolved Fluorescence Resonance Energy Transfer) described hereinafter.
Recombinant fusion protein from N-terminal GST (glutathione S-transferase) and human IRAK4, expressed in baculovirus-infected insect cells (Hi5, BTI-TN-5B1-4, cell line purchased from Invitrogen, catalogue No. B855-02) and purified via affinity chromatography, was used as enzyme. The substrate used for the kinase reaction was the biotinylated peptide biotin-Ahx-[…] (C-terminus in amide form) which can be purchased, for example, from Biosyntan GmbH (Berlin-Buch). For the assay, 11 different concentrations in the range from 20 µM to 0.073 nM were prepared from a 2 mM DMSO solution of the test substance. 50 nl of the respective 100fold concentrated test compound solutions in DMSO were pipetted into a black low-volume 384-well microtitre plate or a black 1536-well microtiter plate (both Greiner Bio-One, Frickenhausen, Germany), 2 µl of a solution of IRAK4 in assay buffer [50 mM HEPES pH 7.5, 5mM MgCl2, 1.0 mM dithiothreitol, 30 µM activated sodium orthovanadate, 0.1% (w/v) of bovine gamma-globulin (BGG) 0.04% (v/v) nonidet-P40 (Sigma)] were added and the mixture was incubated for 15 min to allow prebinding of the substances to the enzyme prior to the kinase reaction. […] The concentration of the IRAK4 was adjusted to the respective activity of the enzyme and set such that the assay was carried out in the linear range. Typical concentrations were in the order of about 0.2 nM. The reaction was stopped by addition of 5 µl of a solution of TR-FRET detection reagents [0.1 µM streptavidin-XL665 (Cisbio Bioassays; France, catalogue No. 610SAXLG)] and 1.5 nM anti-phosphoserine antibody [Merck Millipore, "STK Antibody", catalogue No. 35-002] and 0.6 nM LANCE EU-W1024-labelled anti-mouse-IgG antibody (Perkin-Elmer, product No. AD0077; alternatively, it is possible to use a terbium cryptate-labelled anti-mouse-IgG antibody from Cisbio Bioassays) in aqueous EDTA solution (100 mM EDTA, 0.4 % [w/v] bovine serum albumin [BSA] in 25 mM HEPES pH 7.5). The resulting mixture was incubated at 22°C for 1 h to allow formation of a complex of the biotinylated phosphorylated substrate and the detection reagents. The amount of the phosphorylated substrate was then evaluated by measuring the resonance energy transfer from europium chelate-labelled anti-mouse-IgG antibody to streptavidin-XL665. To this end, the fluorescence emissions at 620 nm and 665 nm were measured after excitation at 350 nm in a TR-FRET measuring instrument, for example a Rubystar (BMG Labtechnologies, Offenburg, Germany) or a Viewlux (Perkin-Elmer). The ratio of the emissions at 665 nm and 622 nm was taken as a measure of the amount of phosphorylated substrate. The data were normalized (enzyme reaction without test substance = 0% inhibition; all other assay components but no enzyme = 100% inhibition).
Background: Time-resolved FRET reads energy transfer from a long-lived donor to a nearby acceptor.

What is called IC50 is the concentration that gives 50% inhibition. Higher therefore signals lower potency.

Structures are written as SMILES.

The compound `O=C1C[C@H](Nc2nc(N3CC(O)C3)c3cnn(-c4cccc(C(F)(F)F)c4)c3n2)CN1` [Example I-32, (4S)-4-({4-(3-hydroxyazetidin-1-yl)-1-[3-(trifluoromethyl)phenyl]-1H-pyrazolo[3,4-d]pyrimidin-6-yl}amino)pyrrolidin-2-one] displayed an IC50 of 28.7 nM.
The figure for `O=S1(=O)CC[C@H](Nc2nc(N3CCC(N4CCOCC4)CC3)c3cnn(-c4cccc(C(F)(F)F)c4)c3n2)C1` [Example I-33, N-[(3S)-1,1-dioxidotetrahydrothiophen-3-yl]-4-[4-(morpholin-4-yl)piperidin-1-yl]-1-[3-(trifluoromethyl)phenyl]-1H-pyrazolo[3,4-d]pyrimidin-6-amine] is 84.2 nM.
In the case of `O=S1(=O)CC[C@H](Nc2nc(N3CC(N4CCOCC4)C3)c3cnn(-c4cccc(C(F)(F)F)c4)c3n2)C1` [Example I-34, N-[(3S)-1,1-dioxidotetrahydrothiophen-3-yl]-4-[3-(morpholin-4-yl)azetidin-1-yl]-1-[3-(trifluoromethyl)phenyl]-1H-pyrazolo[3,4-d]pyrimidin-6-amine], half-maximal inhibition (IC50) was put at 85.1 nM.
On to `CS(=O)(=O)CC1CN(c2nc(N[C@@H]3CNC(=O)C3)nc3c2cnn3-c2cccc(C(F)(F)F)c2)C1` [Example I-35, (4S)-4-[(4-{3-[(methylsulfonyl)methyl]azetidin-1-yl}-1-[3-(trifluoromethyl)phenyl]-1H-pyrazolo[3,4-d]pyrimidin-6-yl)amino]pyrrolidin-2-one], for which inhibition was half-maximal at 16.5 nM (IC50).
Turning to `CN1CC[C@H](Nc2nc(N3CC(CS(C)(=O)=O)C3)c3cnn(-c4cccc(C(F)(F)F)c4)c3n2)C1` [Example I-36, N-[(3S)-1-methylpyrrolidin-3-yl]-4-{3-[(methylsulfonyl)methyl]azetidin-1-yl}-1-[3-(trifluoromethyl)phenyl]-1H-pyrazolo[3,4-d]pyrimidin-6-amine], the IC50 came to 45 nM.
The figure for `CN(C)C1(C)CN(c2nc(N[C@@H]3CNC(=O)C3)nc3c2cnn3-c2cccc(C(F)(F)F)c2)C1` [Example I-38, (4S)-4-({4-[3-(dimethylamino)-3-methylazetidin-1-yl]-1-[3-(trifluoromethyl)phenyl]-1H-pyrazolo[3,4-d]pyrimidin-6-yl}amino)pyrrolidin-2-one] is 16.2 nM.
Consider `CN(C)C1(C)CN(c2nc(NC3CCS(=O)(=O)CC3)nc3c2cnn3-c2cccc(C(F)(F)F)c2)C1` [Example I-39, 4-[3-(dimethylamino)-3-methylazetidin-1-yl]-N-(1,1-dioxidotetrahydro-2H-thiopyran-4-yl)-1-[3-(trifluoromethyl)phenyl]-1H-pyrazolo[3,4-d]pyrimidin-6-amine], for which the midpoint of inhibition, the IC50, lay at 24.5 nM.
With `CC1(O)CN(c2nc(N[C@@H]3CCN(S(C)(=O)=O)C3)nc3c2cnn3-c2cccc(C(F)(F)F)c2)C1` [Example I-41-1, 3-methyl-1-(6-{[(3R)-1-(methylsulfonyl)pyrrolidin-3-yl]amino}-1-[3-(trifluoromethyl)-phenyl]-1H-pyrazolo[3,4-d]pyrimidin-4-yl)azetidin-3-ol], the 50% inhibitory concentration (IC50) was 250 nM.
Turning to `CC1(O)CN(c2nc(N[C@H]3CCN(S(C)(=O)=O)C3)nc3c2cnn3-c2cccc(C(F)(F)F)c2)C1` [Example I-41-2, 3-methyl-1-(6-{[(3S)-1-(methylsulfonyl)pyrrolidin-3-yl]amino}-1-[3-(trifluoromethyl)-phenyl]-1H-pyrazolo[3,4-d]pyrimidin-4-yl)azetidin-3-ol], 400 nM corresponded to half-maximal inhibition (IC50).
`CN(C)C1CN(c2nc(NC3CCS(=O)(=O)CC3)nc3c2cnn3-c2cccc(C(F)(F)F)c2)C1` [Example I-42, 4-[3-(dimethylamino)azetidin-1-yl]-N-(1,1-dioxidotetrahydro-2H-thiopyran-4-yl)-1-[3-(trifluoromethyl)phenyl]-1H-pyrazolo[3,4-d]pyrimidin-6-amine] had an IC50 of 32 nM.
The figure for `CC1(Nc2nc(N3CC(N4CCOCC4)C3)c3cnn(-c4cccc(C(F)(F)F)c4)c3n2)CCS(=O)(=O)C1` (centres unmarked) [Example I-43, N-(3-methyl-1,1-dioxidotetrahydrothiophen-3-yl)-4-[3-(morpholin-4-yl)azetidin-1-yl]-1-[3-(trifluoromethyl)phenyl]-1H-pyrazolo[3,4-d]pyrimidin-6-amine] is 280 nM; for `CN(C)C1CN(c2nc(N[C@@H]3CNC(=O)C3)nc3c2cnn3-c2cccc(C(F)(F)F)c2)C1` [Example I-44, (4S)-4-({4-[3-(dimethylamino)azetidin-1-yl]-1-[3-(trifluoromethyl)phenyl]-1H-pyrazolo-[3,4-d]pyrimidin-6-yl}amino)pyrrolidin-2-one] it is 15.7 nM.
The value for `O=C(O)CC1CN(c2nc(N[C@@H]3CNC(=O)C3)nc3c2cnn3-c2cccc(C(F)(F)F)c2)C1` [Example I-50, [1-(6-{[(3S)-5-oxopyrrolidin-3-yl]amino}-1-[3-(trifluoromethyl)phenyl]-1H-pyrazolo[3,4-d]pyrimidin-4-yl)azetidin-3-yl]acetic acid] was 48.4 nM; that for `O=S1(=O)CCN(C2CN(c3nc(NC4CC4)nc4c3cnn4-c3cccc(C(F)(F)F)c3)C2)CC1` [Example I-53, N-cyclopropyl-4-[3-(1,1-dioxidothiomorpholin-4-yl)azetidin-1-yl]-1-[3-(trifluoromethyl)-phenyl]-1H-pyrazolo[3,4-d]pyrimidin-6-amine] was 99.8 nM; that for `CN(C)C1CN(c2nc(NC3CC(F)(F)C3)nc3c2cnn3-c2cccc(C(F)(F)F)c2)C1` [Example I-54, N-(3,3-difluorocyclobutyl)-4-[3-(dimethylamino)azetidin-1-yl]-1-[3-(trifluoromethyl)-phenyl]-1H-pyrazolo[3,4-d]pyrimidin-6-amine] was 297 nM.
As for `CS(=O)(=O)[C@H]1C[C@@H](Nc2nc(N3CC(N4CCOCC4)C3)c3cnn(-c4cccc(C(F)(F)F)c4)c3n2)C1` [Example I-55, N-[cis-3-(methylsulfonyl)cyclobutyl]-4-[3-(morpholin-4-yl)azetidin-1-yl]-1-[3-(trifluoromethyl)phenyl]-1H-pyrazolo[3,4-d]pyrimidin-6-amine], the IC50 was found to be 15.6 nM.
Compound `CC(C)(O)C1CCN(c2nc(N[C@H]3C[C@@](O)(C(F)(F)F)C3)nc3c2cnn3-c2cccc(C(F)(F)F)c2)CC1` [Example I-63, trans-3-({4-[4-(2-hydroxypropan-2-yl)piperidin-1-yl]-1-[3-(trifluoromethyl)phenyl]-1H-pyrazolo[3,4-d]pyrimidin-6-yl}amino)-1-(trifluoromethyl)cyclobutanol] registered a half-inhibitory concentration (IC50) of 30.6 nM.
Consider `CC(C)(O)C1CCN(c2nc(N[C@@H]3CN4CCC3CC4)nc3c2cnn3-c2cccc(C(F)(F)F)c2)CC1` [Example I-64-2], for which the half-inhibitory concentration (IC50) is 58.9 nM.
`CC(C)(O)C1CCN(c2nc(N[C@H]3C[C@@](C)(C(=O)O)C3)nc3c2cnn3-c2cccc(C(F)(F)F)c2)CC1` [Example I-66, cis-3-({4-[4-(2-hydroxypropan-2-yl)piperidin-1-yl]-1-[3-(trifluoromethyl)phenyl]-1H-pyrazolo[3,4-d]pyrimidin-6-yl}amino)-1-methylcyclobutanecarboxylic acid]: the IC50 came out at 138 nM.
The compound `O[C@H]1COC[C@@H]1Nc1nc(N2CC(N3CCOCC3)C2)c2cnn(-c3cccc(C(F)(F)F)c3)c2n1` [Example I-69, (3R,4S)-4-({4-[3-(morpholin-4-yl)azetidin-1-yl]-1-[3-(trifluoromethyl)phenyl]-1H-pyrazolo[3,4-d]pyrimidin-6-yl}amino)tetrahydrofuran-3-ol] came in with an IC50 of 26.2 nM.
